The nature of data set [1]: elimination of GA metabolites in SD rats intravenously injected with GA. The class given is in vivo, Sprague-Dawley (SD) rats. The following applies: female SD rats, GA iv, faeces collected 24 h after injection. The text has this:
(§1) Briefly, after diluting serum and urine samples with water to obtain suitable concentrations, they were digested with subtilisin (0.91 U/ml), followed by the addition of astragaloside IV (used as an internal standard; Fujifilm Wako Pure Chemicals, Osaka, Japan), and deproteinized using 80% ethanol. […] The transitions (precursor to daughter) monitored and retention times were as follows: ESI(+), 743.4 to 567.5 m/z (35 and 25 V for cone voltage and collision energy, respectively) for compound 1 (8.1 min); ESI(–), 565.5 to 96.5 m/z (80 and 60 V) for 2 (9.6 min); ESI(–), 549.5 to 96.5 m/z (80 and 60 V) for 3 (15.4 min); ESI(+), 727.3 to 551.2 m/z (30 and 25 V) for 4 (11.3 min); ESI(+), 647.6 to 453.6 m/z (40 and 20 V) for 3MGA (15.0 min); ESI(+), 471.3 to 91.0 m/z (40 and 20 V) for GA (13.4 min); ESI(+), 823.5 to 453.6 m/z (30 and 20 V) for GL (18.4 min); and ESI(+), 785.4 to 143.0 m/z (30 and 20 V) for astragaloside IV (3.0 min). Linear regressions over the concentration range of 2 nM to 2 µM for each compound were examined using the peak-area ratio of the compounds to their internal standards and the least-squares method (r ^ 2 > 0.98). The detection limits for 1, GL, and GA were 6.4 nM, and those for 2, 3, and 4, and 3MGA were 3.2 nM.
FIGURE 6 Elimination of glycyrrhizin (GL) metabolites into bile in Sprague-Dawley (SD) rats. Female SD rats (10 week-old) were anesthetized using intraperitoneal injection of urethane (1 g/kg), and biliary tracts were cannulated. […] Concentrations of GA metabolites were measured using liquid chromatography-tandem mass spectrometry (LC-MS/MS) and accumulated elimination of GA-metabolites are means ± standard error (S.E: n = 3).

Data set [2] can be described thus: pharmacokinetics of GA metabolites in EHBRs orally treated with GA. As to conditions: for concentration at 12 h: Eisai hyperbilirubinuria rat (EHBR), rat, plasma, 200 mg/kg, GA 0.20 g/kg oral, read-out: plasma concentration 12 h after oral administration of GA. The class given is in vivo, Eisai hyperbilirubinuria rats (EHBRs). Here is the method: Pharmacokinetic Experiments of GA Metabolites in EHBRs Orally Treated With GA
Male and female EHBRs (9 week-old) were anaesthetized by an intraperitoneal injection of urethane (1 g/kg) and their jugular veins were exposed. GA suspended in 0.5% carboxymethylcellulose was then administered orally (200 mg/kg) to the unconscious rats, and blood samples were collected from the jugular vein while urine samples were collected using a metabolic cage at appropriate times over a 12 h period.
LC-MS/MS Analysis for GA Metabolites
as §1
FIGURE 5 Pharmacokinetic profiles of glycyrrhizin (GL) metabolites in female (A–C) and male (D–F) Eisai hyperbilirubinuria rats (EHBRs). […] Data of GA, 3MGA, 1, 2, and 3 in (A) and GA, 3MGA, 2, and 3 for (D) are relatively small; their magnified graphs are shown in (B,E), respectively. Concentrations of GA metabolites were measured using liquid chromatography-tandem mass spectrometry (LC-MS/MS), and data are means ± standard error (S.E: n = 4).

In the next data set the test system is anti-3MGA-mAb. The data set can be described thus: competitive ELISA using anti-3MGA-mAb. The class given is binding. The following applies: competitive ELISA in aqueous solution, 3MGA calibrated to 100%. Here is the method: ELISA System Using anti-3MGA-mAb
An ELISA system to measure the cross-reactivity of compounds 3 and 4 by using 3MGA-HSA-conjugate and anti-3MGA-mAb was used according to the protocol in our previous study ([Ishiuchi et al., 2019]). To measure the concentration of 3 in human serum samples using the system ELISA, 3 was dissolved in normal human serum (Sigma) to prepare standard solutions (16 nM–2.0 µM) and the samples or standard solutions (each 10 µl) and ethanol (40 µl) were well mixed and centrifuged (1.2 × 10^4 × g for 7 min). The supernatant was dried up under nitrogen flow at 40°C overnight, and the residue was dissolved in Can Get Signal® Solution 1 (Toyobo Co., Ltd: Osaka, Japan) (50 µl). […] When the observed values were more than 400 nM, the deproteinized serum samples were further diluted with Can Get Signal® Solution 1 for two or four times and analyzed again to observe values from 15.6 to 400 nM.
FIGURE 4 Development of enzyme-linked immunosorbent assay (ELISA) system to measure concentrations of 3 in human serum samples using anti-18β-glycyrrhetyl-3-O-glucuronide (3MGA)-monoclonal antibody (mAb). […] Standard lines between absorbance and concentrations of compound 3 are shown (D) Accuracy of ELISA system in measuring concentrations of 3 in human serum samples using anti-3MGA-mAb. Human serum samples were deproteinized, and concentration of 3 was measured using ELISA system. […]

Details of data set [3]: method as in Takahashi et al., 2019. The following applies: ref Takahashi et al., 2019, cited from earlier work.
The test system of data set [4] is mineralocorticoid receptor (MR). Details: method as in earlier work. As to conditions: ref Ulmann et al., 1975; Armanini et al., 1983; Monder et al., 1989; cited from earlier work.

Where two headings read alike, the source gives them in different places.

Turning to `CC1(C)[C@@H](O[C@H]2O[C@H](C(=O)O)[C@@H](O)[C@H](O)[C@H]2O[C@@H]2O[C@H](C(=O)O)[C@@H](O)[C@H](O)[C@H]2O)CC[C@]2(C)[C@H]3C(=O)C=C4[C@@H]5C[C@@](C)(C(=O)O)CC[C@]5(C)CC[C@@]4(C)[C@]3(C)CC[C@@H]12` [GL, glycyrrhizin], the “accumulative elimination in faeces” value in data set [1] was “below detectable levels”.
Take `CC1(C)[C@@H](OS(=O)(=O)O)CC[C@]2(C)[C@H]3C(=O)C=C4[C@@H]5C[C@@](C)(C(=O)O)C[C@H](O)[C@]5(C)CC[C@@]4(C)[C@]3(C)CC[C@@H]12` [Compound 2, 22α-hydroxy-18β-glycyrrhetyl-3-O-sulfate]: the concentration at 12 h came out at 10000 nM in data set [2] (female EHBRs) and 8200 nM in data set [2] (male EHBRs). Also, in data set [1], the “accumulative elimination in faeces” value stood at 0.86 ± 0.1 nmol.
Take `CC1(C)[C@@H](OS(=O)(=O)O)CC[C@]2(C)[C@H]3C(=O)C=C4[C@@H]5C[C@@](C)(C(=O)O)CC[C@]5(C)CC[C@@]4(C)[C@]3(C)CC[C@@H]12` [Compound 3, 18β-glycyrrhetyl-3-O-sulfate]: the “cross-reactivity to anti-3MGA-mAb” value in the data set on anti-3MGA-mAb stood at 23%. Further, the concentration at 12 h in data set [2] (female EHBRs) turned out to be 2000 nM; in data set [2] (male EHBRs), 2200 nM. Moreover, the “accumulative elimination in faeces” value in data set [1] worked out at 1.8 ± 0.3 nmol. Further, the “serum concentration of 3 relative to that of GA (fold higher)” value in data set [3] (human serum) is reported as 1.5–2 fold. In data set [3] (previous clinical study), the maximum serum concentration is 4.2 µM.
Regarding `CC1(C)[C@@H](O)CC[C@]2(C)[C@H]3C(=O)C=C4[C@@H]5C[C@@](C)(C(=O)O)CC[C@]5(C)CC[C@@]4(C)[C@]3(C)CC[C@@H]12` [GA, glycyrrhetinic acid, reference compound], the “binding activity (ED50) on mineralocorticoid receptor” value in data set [4] is “about 100 µM”. The concentration at 12 h came to 2700 nM in data set [2] (female EHBRs) and 2600 nM in data set [2] (male EHBRs). Besides, the “accumulative elimination in faeces” value in data set [1] is on record as 9.8 ± 1.3 nmol.
As to `CC1(C)[C@@H](O[C@@H]2O[C@H](C(=O)O)[C@@H](O)[C@H](O)[C@H]2O)CC[C@]2(C)[C@H]3C(=O)C=C4[C@@H]5C[C@@](C)(C(=O)O)CC[C@]5(C)CC[C@@]4(C)[C@]3(C)CC[C@@H]12` [Compound 3MGA, 18β-glycyrrhetyl-3-O-glucuronide, reference compound], the values for the concentration at 12 h in data set [2] (female EHBRs) and in data set [2] (male EHBRs) were 100 nM and 1600 nM, respectively. For the same compound, the “accumulative elimination in faeces” value in data set [1] is “below detectable levels”.
As to `CC1(C)[C@@H](OS(=O)(=O)O)CC[C@]2(C)[C@H]3C(=O)C=C4[C@@H]5C[C@@](C)(C(=O)O[C@@H]6O[C@H](C(=O)O)[C@@H](O)[C@H](O)[C@H]6O)C[C@H](O)[C@]5(C)CC[C@@]4(C)[C@]3(C)CC[C@@H]12` [Compound 1, 22α-hydroxy-18β-glycyrrhetyl-3-O-sulfate-30-glucuronide], the “blood concentration in male rats relative to female rats” value in data set [2] (EHBRs, 12 h after oral GA) is listed as “approximately 7 fold”. The concentration at 12 h is 32000 nM in data set [2] (female EHBRs) and 177000 nM in data set [2] (male EHBRs). In addition, in data set [1], the “accumulative elimination in faeces” value is listed as “below detectable levels”.

The record behind these values is paper PMC8165744, “Identification of an Alternative Glycyrrhizin Metabolite Causing Liquorice-Induced Pseudohyperaldosteronism and the Development of ELISA System to Detect the Predictive Biomarker” (Frontiers in Pharmacology, 2021).
